Measurements published in article PMC8410836, “Rational design of hyperstable antibacterial peptides for food preservation” (NPJ Science of Food, 2021).
Converted amounts (≈) assume the structure as drawn. Where a SMILES comes first, the peptide text is derived from it. Bridges are numbered along the chain shown (N, C = ends).

How the values were obtained:
[1] = system: Micrococcus luteus ATCC4698; conditions: microdilution broth (CLSI, modified), Mueller-Hinton broth, 5 × 10^5 CFU/mL, 37 °C, 7–8 h, resazurin colour change; three independent experiments in triplicates
Description: (§1) Four Gram-positive bacteria: Listeria monocytogenes ATCC13932, Bacillus cereus ATCC11778, Staphylococcus aureus ATCC12900, and Micrococcus luteus ATCC4698 and three Gram-negative bacteria: Escherichia coli ATCC11775, Pectobacterium carotovorum MCC2112, and Salmonella typhimurium ATCC9844 were used in this study. These strains were stored at −80 °C in 25% (v/v) glycerol.
(§2) Antimicrobial assays against various bacterial cultures were done using the microdilution broth assay according to the Clinical and Laboratory Standards Institute (CLSI)[64] with some modifications. Mueller-Hinton broth was used to dilute the peptide stock and the bacterial inoculum. Inoculum was prepared from the mid-logarithmic phase culture. Each well of the microtiter plates received aliquots of 100 µL of the media containing different concentrations of peptide ranging from 0.3 to 300 µg/mL. The final concentration of bacteria in the wells was 5 × 10^5 Colony Forming Units (CFU) per mL. Ampicillin was used as positive control. For negative control, ultrapure water was used instead of peptides. Microtiter plates were incubated at 37 °C for 5–6 h with continuous shaking at 130 rpm (M. luteus cells were incubated for 7–8 h). The incubation time used for these assays was initially optimized using a 20-h incubation period. […] MIC assays were performed as three independent experiments in triplicates.

[2] = molecular target: bovine trypsin (Bos taurus, UniProt P00760); experiment: biochemical; conditions: SEM
Description: The amidase activity of trypsin and its inhibition was assayed using the chromogenic substrate BAPNA at pH 8.2 in 0.05 M Tris-HCl containing 0.02 M CaCl2 at 37 °C. The assay reaction contained 50 µL of trypsin solution (40–50 μg of trypsin in 1 mM HCl), 50 µL of water, and 125 µL of the substrate. The reaction was carried out at 37 °C for 10 min and stopped by addition of 0.25 mL of 30% acetic acid. […] The trypsin solution was incubated with an aliquot of inhibitor for 10 min at 37 °C and reaction started by the addition of 125 µL substrate and incubated at 37 °C for 10 min. […] The effect of varying substrate concentration (BAPNA) on bovine trypsin in the presence of fixed concentrations of peptides was studied. The inhibition constants (Ki) were evaluated using the double reciprocal and Dixon plot of the data[65],[66]. Data presented are averages and standard error calculated from two biological replicate experiments.

[3] = system: Bacillus cereus ATCC11778; conditions: microdilution broth, MH broth, 5 × 10^5 CFU/mL, 37 °C, 5–6 h, resazurin
Description: as §1, §2

[4] = system: Escherichia coli ATCC11775; conditions: microdilution broth, MH broth, 5 × 10^5 CFU/mL, 37 °C, 5–6 h, resazurin
Description: as §1, §2

[5] = system: Listeria monocytogenes ATCC13932; conditions: microdilution broth, MH broth, 5 × 10^5 CFU/mL, 37 °C, 5–6 h, resazurin
Description: as §1, §2

[6] = system: Pectobacterium carotovorum MCC2112; conditions: microdilution broth, MH broth, 5 × 10^5 CFU/mL, 37 °C, 5–6 h, resazurin
Description: as §1, §2

[7] = system: Salmonella typhimurium ATCC9844; conditions: microdilution broth, MH broth, 5 × 10^5 CFU/mL, 37 °C, 5–6 h, resazurin
Description: as §1, §2

[8] = system: Staphylococcus aureus ATCC12900; conditions: microdilution broth, MH broth, 5 × 10^5 CFU/mL, 37 °C, 5–6 h, resazurin
Description: as §1, §2

Sequence of bovine trypsin (P00760 24-246): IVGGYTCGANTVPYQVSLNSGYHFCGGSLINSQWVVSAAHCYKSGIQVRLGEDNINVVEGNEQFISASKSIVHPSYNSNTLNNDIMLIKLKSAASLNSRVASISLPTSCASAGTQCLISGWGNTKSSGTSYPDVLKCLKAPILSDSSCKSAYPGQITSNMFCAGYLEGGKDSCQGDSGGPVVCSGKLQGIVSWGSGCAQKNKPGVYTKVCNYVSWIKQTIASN

Compound | MIC (µg/mL) M. luteus [1] | Ki [2] [nM] | MIC Bacillus cereus [3] [µg/mL] | MIC Escherichia coli [4] [µg/mL] | MIC Listeria monocytogenes [5] [µg/mL] | MIC Pectobacterium carotovorum [6] [µg/mL] | MIC Salmonella typhimurium [7] [µg/mL] | MIC Staphylococcus aureus [8] [µg/mL]
CC[C@H](C)[C@H](NC(=O)[C@@H](NC(=O)[C@@H](N)CO)C(C)C)C(=O)NCC(=O)N[C@H]1CSSC[C@@H](C(=O)N[C@@H](Cc2ccccc2)C(=O)N[C@H](C(=O)N[C@@H](CCCCN)C(=O)O)C(C)C)NC(=O)[C@H]([C@@H](C)CC)NC(=O)[C@@H]2CCCN2C(=O)[C@@H]2CCCN2C(=O)[C@H]([C@@H](C)CC)NC(=O)[C@H](CO)NC(=O)[C@H](CCCCN)NC(=O)[C@H]([C@@H](C)O)NC1=O [HSEP1] (H-SVIGCTKSIPPICFVK-OH; disulfide 5-13) | 75 µg/mL (≈ 44.4 µM) | 230 | – | – | – | – | – | –
CC[C@H](C)[C@@H]1NC(=O)[C@@H]2CCCN2C(=O)[C@@H]2CCCN2C(=O)[C@H]([C@@H](C)CC)NC(=O)[C@H](CO)NC(=O)[C@H]([C@@H](C)O)NC(=O)[C@@H](NC(=O)[C@H](C)N)CSSC[C@@H](C(=O)NCC(=O)N[C@@H](CCCCN)C(=O)O)NC1=O [HSEP2-ΔHR-ΔK8] (H-ACTSIPPICGK-OH; disulfide 2-9) | >150 µg/mL | – | – | – | – | – | – | –
CC[C@H](C)[C@H](NC(=O)[C@@H](NC(=O)[C@@H](N)CO)C(C)C)C(=O)N[C@@H](Cc1ccccc1)C(=O)NCC(=O)N[C@H]1CSSC[C@@H](C(=O)N[C@@H](Cc2ccccc2)C(=O)N[C@H](C(=O)NCC(=O)N[C@@H](Cc2ccccc2)C(=O)O)C(C)C)NC(=O)[C@H]([C@@H](C)CC)NC(=O)[C@@H]2CCCN2C(=O)[C@@H]2CCCN2C(=O)[C@H]([C@@H](C)CC)NC(=O)[C@H](CO)NC(=O)[C@H](CCCCN)NC(=O)[C@H]([C@@H](C)O)NC1=O [HSEP2-∆K19] (H-SVIFGCTKSIPPICFVGF-OH; disulfide 6-14) | 25 µg/mL (≈ 13.1 µM) | 440 | >150 | >150 | >150 | >150 | >150 | >150
CC[C@H](C)[C@H](NC(=O)[C@H](Cc1ccccc1)NC(=O)[C@H](CO)NC(=O)[C@@H](N)CCCNC(=N)N)C(=O)N[C@@H](Cc1ccccc1)C(=O)NCC(=O)N[C@H]1CSSC[C@@H](C(=O)N[C@@H](Cc2ccccc2)C(=O)N[C@H](C(=O)NCC(=O)N[C@@H](Cc2ccccc2)C(=O)N[C@@H](CCCCN)C(=O)O)C(C)C)NC(=O)[C@H]([C@@H](C)CC)NC(=O)[C@@H]2CCCN2C(=O)[C@@H]2CCCN2C(=O)[C@H]([C@@H](C)CC)NC(=O)[C@H](CO)NC(=O)[C@H](CCCCN)NC(=O)[C@H]([C@@H](C)O)NC1=O [HSEP3a] (H-RSFIFGCTKSIPPICFVGFK-OH; disulfide 7-15) | 12.5 µg/mL (≈ 5.57 µM) | 55 | >150 | >150 | >150 | >150 | >150 | >150
CC[C@H](C)[C@H](NC(=O)[C@@H](NC(=O)[C@@H](N)CO)C(C)C)C(=O)NCC(=O)N[C@H]1CSSC[C@@H](C(=O)N[C@@H](Cc2ccccc2)C(=O)N[C@H](C(=O)N[C@@H](CCCCN)C(=O)O)C(C)C)NC(=O)[C@@H]2CCCN2C(=O)[C@H](CCCNC(=N)N)NC(=O)[C@@H]2CCCN2C(=O)[C@@H]2CCCN2C(=O)[C@H]([C@@H](C)CC)NC(=O)[C@H](CO)NC(=O)[C@H](CCCCN)NC(=O)[C@H]([C@@H](C)O)NC(=O)[C@H](Cc2c[nH]c3ccccc23)NC1=O [HVBBI, reference compound] (H-SVIGCWTKSIPPRPCFVK-OH; disulfide 5-15) | 150 µg/mL (≈ 74.4 µM) | 370 | – | – | – | – | – | –
CC[C@H](C)[C@@H]1NC(=O)[C@@H]2CCCN2C(=O)[C@@H]2CCCN2C(=O)[C@H]([C@@H](C)CC)NC(=O)[C@H](CO)NC(=O)[C@H](CCCCN)NC(=O)[C@H]([C@@H](C)O)NC(=O)[C@@H]2CSSC[C@H](NC1=O)C(=O)N[C@@H](Cc1ccccc1)C(=O)N1CCC[C@H]1C(=O)N[C@@H](CC(=O)O)C(=O)NCC(=O)N[C@@H](CCCNC(=N)N)C(=O)N2 [SFTI-cyclic, reference compound] | no detectable inhibitory activity | – | – | – | – | – | – | –
